Data on 18 molecules can be found in PubChem BioAssay (NCI).

What all share (test): inhibition of tumour cell growth, NCI panel, 48 h
Assay [1] concerns CAKI-1 renal.
Assay [2] relates to CCRF-CEM leukemia.
Assay [3] concerns HCT-15 colon.
The subject of assay [4] is MDA-MB-435.
For assay [5], the system named is NCI-H460 lung.
Assay [6] has as its system SF-539 CNS.
The test system of assay [7] is SK-MEL-2 melanoma.
In assay [8] the test system is MALME-3M melanoma.

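Step 1: Grow cells in 96-well plates. Step 2: Expose to compound for 48 hours at 5 concentrations. Step 3: Interpolate endpoints linearly; if unreached, use highest concentration. TGI denotes the concentration required for complete inhibition of growth.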

As for `Cc1cc(OP2(=O)NCc3ccncc3O2)ccc1Cl` (configuration not stated), the TGI in assay [1], in assay [2], in assay [3], in assay [4], in assay [5] and in assay [6] was over 100 µM each time. Further, the TGI in assay [7] is over 100 µM.

On to `C[C@H](CCC(=O)O)[C@H]1CC[C@H]2[C@@H]3[C@H](O)[C@H](O)[C@@H]4C[C@H](O)CC[C@]4(C)[C@H]3CC[C@]12C`, for which the TGI in assay [1], in assay [2], in assay [3], in assay [8], in assay [4] and in assay [5] was over 100 µM each time. Further, the TGI in assay [6] and in assay [7] was over 100 µM each time.

As to `CC(=O)/C(=C/N1CC(=O)NC1=S)C(=O)Nc1ccccc1C`, the TGI in assay [1], in assay [3], in assay [4], in assay [5], in assay [6] and in assay [7] was over 100 µM throughout.

Take `C[n+]1c2ccccc2n2c3ccccc3c(NCc3ccco3)c(C#N)c21`: the TGI in assay [1] was 7.36 µM; in assay [3], 4.34 µM; in assay [8], 7.59 µM; in assay [4], 4.34 µM; in assay [5], 4.19 µM; in assay [6] it was 8.79 µM. Moreover, the TGI in assay [7] was 6.51 µM.

On to `Cc1cn(C(CO)OC(CO)CN(O)C2C3CC4CC(C3)CC2C4)c(=O)[nH]c1=O` (configuration not stated), for which the TGI in assay [1], in assay [3], in assay [4], in assay [5], in assay [6] and in assay [7] was over 100 µM each time.

As to `CCN(CC)CCOCCOCC1(c2ccc(Cl)c(Cl)c2)CCCCC1`, the TGI in assay [1] was 22.9 µM; in assay [2], 14.7 µM; in assay [3], 15.3 µM; in assay [8], 13.3 µM; in assay [4], 13.6 µM; in assay [5], 13.3 µM. The TGI came out at 24.8 µM in assay [6] and 28.6 µM in assay [7].

For the molecule `Nc1nncc2n[nH]nc12`, the TGI in assay [1], in assay [2], in assay [3], in assay [4], in assay [5] and in assay [6] was over 100 µM each time. The molecule also came in with a TGI in assay [7] of over 100 µM.

On to `COc1c(O)cc2c(c1O)C(=O)C(Cc1ccc(O)cc1)CO2` (configuration not stated), for which the TGI in assay [1] was over 100 µM; in assay [3], over 100 µM; in assay [8], over 100 µM; in assay [4] it was 76.8 µM; in assay [5] it was over 100 µM; in assay [6], over 100 µM. The molecule further came in with a TGI in assay [7] of over 100 µM.

Turning to `COc1ccc2[nH]c3c(c2c1)CCc1c(OC)cccc1-3`, the TGI in assay [1], in assay [2], in assay [3], in assay [8], in assay [4] and in assay [5] was over 100 µM throughout. Also, the TGI in assay [7] was over 100 µM.

As for `COP(=O)(/C=C/C(NC(=O)C(Cl)(Cl)Cl)c1ccccc1)OC` (configuration not stated), the TGI in assay [1], in assay [3], in assay [8], in assay [4], in assay [5] and in assay [7] was over 100 µM each time.

Regarding `O=C1C=CC(=O)c2c(O)c(NCCN3CCOCC3)c(Cl)c(O)c21`, the TGI was found to be 3.25 µM in assay [1]; 4.46 µM in assay [2]; 3.87 µM in assay [3]; 3.31 µM in assay [8]; 4.12 µM in assay [4]; 3.3 µM in assay [5]. In assay [6], this molecule came in with a TGI of 3.33 µM.

With `COC(=O)Cc1cccc2c(=O)c(S(=O)(=O)NC(=O)Nc3ccc(Cl)cc3)c(-c3ccccc3)oc12`, the TGI in assay [1] was 74.3 µM; in assay [2], over 100 µM; in assay [3] it was over 100 µM; in assay [4], over 100 µM; in assay [5], over 100 µM; in assay [6] it was over 100 µM.

Take `C=CC(=C)CCC(Br)C(C)(C)Br` (configuration not stated): the TGI in assay [2] was 50.8 µM; in assay [3], over 100 µM; in assay [8], over 100 µM; in assay [4], over 100 µM; in assay [5] it was over 100 µM; in assay [6], over 100 µM. This molecule returned a TGI in assay [7] of over 100 µM.

With `CC(C)(C)n1[nH]c(=O)n(C(C)(C)C)c1=O`, the TGI in assay [1], in assay [3], in assay [4], in assay [5], in assay [6] and in assay [7] was over 100 µM each time.

In the case of `N#CC12CC(C=O)=C(N)C1(C#N)CC(C=O)=C2N` (configuration not stated), the TGI was over 100 µM in assay [1]; over 100 µM in assay [2]; 38.5 µM in assay [3]; over 100 µM in assay [8]; over 100 µM in assay [4]; over 100 µM in assay [6]. In assay [7], this molecule displayed a TGI of 76.3 µM.

Take `CSc1c(C(N)=S)c(N)nn1-c1ccccc1`: the TGI in assay [1], in assay [3], in assay [8], in assay [4], in assay [5] and in assay [6] was over 100 µM throughout. For the same molecule, the TGI in assay [7] was over 100 µM.

Consider `COc1ccc(C/C=C(\C)CCO)cc1`, for which the TGI in assay [1] is 94.3 µM; in assay [2] it was over 100 µM; in assay [3], over 100 µM; in assay [4], over 100 µM; in assay [5], over 100 µM; in assay [6], over 100 µM. This molecule also yielded a TGI in assay [7] of over 100 µM.

As for `CS(=O)(=O)c1ccc(C(=O)O[C@@H]2C(=O)N3CC[C@H]4OC(O)[C@@H]2[C@H]43)cc1` (some centres not stated), the TGI in assay [1], in assay [3], in assay [4], in assay [5], in assay [6] and in assay [7] was over 100 µM in each case.
